Source: ChEMBL document CHEMBL2346507 (Bioorg Med Chem, 2013)
Converted amounts (≈) assume the structure as drawn. Each block holds one molecule with its values, some of them ahead of it.

What was measured:
[1] = Metabolic stability in mouse liver microsomes at 1 umol/L; format: ADME, Microsome; conditions: read-out: Stability
[2] = Lipophilicity, log D of the compound at pH 7.4; format: physicochemical; conditions: buffer
[3] = Metabolic stability in human liver microsomes at 1 umol/L; format: ADME, Microsome; conditions: read-out: Stability
[4] = Thermodynamic solubility of the compound in Japanese pharmacopoeia disintegration solution 2 containing bile acid at pH 6.8 after 18 hrs by HPLC analysis; format: physicochemical; conditions: read-out: Therm_solubility
[5] = Tmax in cynomolgus monkey at 0.5 mg/kg, po; format: ADME, organism-based, Macaca fascicularis; parameters: dose 0.5 mg/kg, route oral; conditions: in vivo
[6] = Plasma concentration in athymic BALB/cAcl-nu/nu mouse xenografted with human A549 cells at 1 mg/kg, po measured at 1 hr by LC/MS/MS analysis; format: ADME, organism-based; parameters: dose 1 mg/kg, route oral
[7] = Drug uptake in athymic BALB/cAcl-nu/nu mouse lung xenografted with human A549 cells at 1 mg/kg, po measured at 8 hrs by LC/MS/MS analysis; format: ADME, organism-based; parameters: dose 1 mg/kg, route oral; conditions: read-out: Drug uptake
[8] = Tmax in Crl:CD (SD) albino rat at 0.5 mg/kg, po; format: ADME, organism-based; parameters: dose 0.5 mg/kg, route oral; conditions: in vivo
[9] = AUC (0 to 24 hrs) in Crl:CD (SD) albino rat at 0.5 mg/kg, po; format: ADME, organism-based; parameters: time < 24 hr, dose 0.5 mg/kg, route oral; conditions: plasma
[10] = Cmax in Crl:CD (SD) albino rat at 0.5 mg/kg, po; format: ADME, organism-based; parameters: dose 0.5 mg/kg, route oral; conditions: in vivo
[11] = Plasma concentration in athymic BALB/cAcl-nu/nu mouse xenografted with human A549 cells at 1 mg/kg, po measured at 8 hrs by LC/MS/MS analysis; format: ADME, organism-based; parameters: dose 1 mg/kg, route oral
[12] = Total plasma clearance in Crl:CD (SD) albino rat at […], iv; format: ADME, organism-based; parameters: dose 0.25 mg/kg, route intravenous
[13] = AUC (0 to 24 hrs) in Crl:CD (SD) albino rat at […], iv; format: ADME, organism-based; parameters: time < 24 hr, dose 0.25 mg/kg, route intravenous; conditions: plasma
[14] = Cmax in cynomolgus monkey at 0.5 mg/kg, po; format: ADME, organism-based, Macaca fascicularis; parameters: dose 0.5 mg/kg, route oral; conditions: in vivo
[15] = Total plasma clearance in cynomolgus monkey at […], iv; format: ADME, organism-based, Macaca fascicularis; parameters: dose 0.25 mg/kg, route intravenous
[16] = Mean residence time in Crl:CD (SD) albino rat at 0.5 mg/kg, po; format: ADME, organism-based; parameters: dose 0.5 mg/kg, route oral; conditions: in vivo
[17] = Oral bioavailability in Crl:CD (SD) albino rat at 0.5 mg/kg; format: ADME, organism-based; conditions: in vivo
[18] = Volume of distribution at steady state in cynomolgus monkey at […], iv; format: ADME, organism-based, Macaca fascicularis; parameters: dose 0.25 mg/kg, route intravenous; conditions: in vivo, read-out: Vdss
[19] = Oral bioavailability in cynomolgus monkey at 0.5 mg/kg; format: ADME, organism-based, Macaca fascicularis; conditions: in vivo
[20] = Volume of distribution at steady state in Crl:CD (SD) albino rat at […], iv; format: ADME, organism-based; parameters: dose 0.25 mg/kg, route intravenous; conditions: in vivo, read-out: Vdss
[21] = Mean residence time in cynomolgus monkey at 0.5 mg/kg, po; format: ADME, organism-based, Macaca fascicularis; parameters: dose 0.5 mg/kg, route oral; conditions: in vivo
[22] = Drug uptake in athymic BALB/cAcl-nu/nu mouse lung xenografted with human A549 cells at 1 mg/kg, po measured at 1 hr by LC/MS/MS analysis; format: ADME, organism-based; parameters: dose 1 mg/kg, route oral; conditions: read-out: Drug uptake
[23] = AUC (0 to 48 hrs) in cynomolgus monkey at 0.5 mg/kg, po; format: ADME, organism-based, Macaca fascicularis; parameters: time < 48 hr, dose 0.5 mg/kg, route oral; conditions: plasma
[24] = AUC (0 to 48 hrs) in cynomolgus monkey at […], iv; format: ADME, organism-based, Macaca fascicularis; parameters: time < 48 hr, dose 0.25 mg/kg, route intravenous; conditions: plasma

- microsomal CLint at 1 µM [1]: 54 µL/min/mg
- logD [2]: 2.21
- microsomal CLint at 1 µM [3]: 9 µL/min/mg
- solubility thermodynamic at 18 h [4]: 14 µg/mL (≈ 31.1 µM)
SMILES: Cc1cc(C(=O)Nc2cc(Oc3ccc4nc(NC(=O)C5CC5)cn4n3)ccc2F)n(C)n1

- microsomal CLint at 1 µM [1]: 43 µL/min/mg
- logD [2]: 2.28
- microsomal CLint at 1 µM [3]: 6 µL/min/mg
- solubility thermodynamic at 18 h [4]: 3.7 µg/mL (≈ 8.58 µM)
SMILES: Cc1cc(C(=O)Nc2cccc(Oc3ccc4nc(NC(=O)C5CC5)cn4n3)c2)n(C)n1

- microsomal CLint at 1 µM [1]: 31 µL/min/mg
- Tmax [5]: 2.8 h
- concentration at 1 h [6]: 451 ng/mL
- concentration at 8 h [7]: < 15 ng/g
- Tmax [8]: 1.3 h
- logD [2]: 2.24
- AUC(0-t) at 24 h [9]: 226 ng·h/mL
- Cmax [10]: 56 ng/mL
- concentration at 8 h [11]: < 3 ng/mL
- clearance [12]: 7.3 mL/min/kg
- AUC(0-t) at 24 h [13]: 571 ng·h/mL
- microsomal CLint at 1 µM [3]: 2 µL/min/mg
- Cmax [14]: 129 ng/mL
- clearance [15]: 3.18 mL/min/kg
- MRT [16]: 3.3 h
- bioavailability [17]: 19.8%
- solubility thermodynamic at 18 h [4]: 38 µg/mL (≈ 85.3 µM)
- Vd [18]: 1.03 L/kg
- bioavailability [19]: 57.6%
- Vd [20]: 0.471 L/kg
- MRT [21]: 11 h
- concentration at 1 h [22]: 242 ng/g
- AUC(0-t) at 48 h [23]: 1510 ng·h/mL
- AUC(0-t) at 48 h [24]: 1310 ng·h/mL
SMILES: Cc1cc(C(=O)Nc2cc(Oc3ccc4nc(NC(=O)C5CC5)cn4n3)ccc2C)n(C)n1 [TAK-593]
